According to ChEMBL document CHEMBL4819021, “Paratrimerins J-Y, Dimeric Coumarins Isolated from the Stems of Paramignya trimera” (J Nat Prod, 2021):
The source made the active and inactive calls. The calls are words filed in the database; no cut-off is given here.

Key:
Assay type in all cases: functional, cell-based
[1] = test system: Huh-7; test: Cytotoxicity against human Huh-7 cells assessed as reduction in cell viability measured after 72 hrs by MTS assay; details: Huh-7, 72 h
[2] = test system: HT-1080; test: Cytotoxicity against human HT-1080 cells assessed as reduction in cell viability measured after 72 hrs by MTS assay; details: HT-1080, 72 h
[3] = test system: HT-29; test: Cytotoxicity against human HT-29 cells harboring Ras/Raf mutant assessed as reduction in cell viability measured after 72 hrs by MTS assay; details: HT-29, 72 h
[4] = test system: SK-HEP1; test: Cytotoxicity against human SK-HEP1 cells assessed as reduction in cell viability at 40 uM measured after 72 hrs by MTS assay
[5] = test system: COLO 205; test: Cytotoxicity against human COLO 205 cells assessed as reduction in cell viability at 40 uM measured after 72 hrs by MTS assay
[6] = test system: HCT-8; test: Cytotoxicity against human HCT-8 cells assessed as reduction in cell viability at 40 uM measured after 72 hrs by MTS assay
[7] = test system: HCT-116; test: Cytotoxicity against human HCT-116 cells assessed as reduction in cell viability at 40 uM measured after 72 hrs by MTS assay
[8] = test system: KM12; test: Cytotoxicity against human KM12 cells assessed as reduction in cell viability at 40 uM measured after 72 hrs by MTS assay
[9] = test system: RKO; test: Cytotoxicity against human RKO cells assessed as reduction in cell viability at 40 uM measured after 72 hrs by MTS assay
[10] = test system: SW480; test: Cytotoxicity against human SW480 cells assessed as reduction in cell viability at 40 uM measured after 72 hrs by MTS assay
[11] = test system: SW-620; test: Cytotoxicity against human SW-620 cells assessed as reduction in cell viability at 40 uM measured after 72 hrs by MTS assay
[12] = test system: BT-549; test: Cytotoxicity against human BT-549 cells assessed as reduction in cell viability at 40 uM measured after 72 hrs by MTS assay
[13] = test system: HCC38; test: Cytotoxicity against human HCC38 cells assessed as reduction in cell viability at 40 uM measured after 72 hrs by MTS assay
[14] = test system: HCC70; test: Cytotoxicity against human HCC70 cells assessed as reduction in cell viability at 40 uM measured after 72 hrs by MTS assay
[15] = test system: HCC1428; test: Cytotoxicity against human HCC1428 cells assessed as reduction in cell viability at 40 uM measured after 72 hrs by MTS assay
[16] = test system: Hs-578T; test: Cytotoxicity against human Hs-578T cells assessed as reduction in cell viability at 40 uM measured after 72 hrs by MTS assay
[17] = test system: MDA-MB-231; test: Cytotoxicity against human MDA-MB-231 cells assessed as reduction in cell viability at 40 uM measured after 72 hrs by MTS assay
[18] = test system: MDA-MB-435; test: Cytotoxicity against human MDA-MB-435 cells assessed as reduction in cell viability at 40 uM measured after 72 hrs by MTS assay
[19] = test system: MDA-MB-468; test: Cytotoxicity against human MDA-MB-468 cells assessed as reduction in cell viability at 40 uM measured after 72 hrs by MTS assay
[20] = test system: MCF7; test: Cytotoxicity against human MCF7 cells assessed as reduction in cell viability at 40 uM measured after 72 hrs by MTS assay
[21] = test system: SK-BR-3; test: Cytotoxicity against human SK-BR-3 cells assessed as reduction in cell viability at 40 uM measured after 72 hrs by MTS assay
[22] = test system: T47D; test: Cytotoxicity against human T47D cells assessed as reduction in cell viability at 40 uM measured after 72 hrs by MTS assay

| SMILES | Activity [4] | Activity [5] | Activity [6] | Activity [7] | Activity [8] | Activity [9] | Activity [10] | Activity [11] | Activity [12] | Activity [13] | Activity [14] | Activity [15] | Activity [16] | Activity [17] | Activity [18] | Activity [19] | Activity [20] | Activity [21] | Activity [22] | also measured |
| --- | --- | --- | --- | --- | --- | --- | --- | --- | --- | --- | --- | --- | --- | --- | --- | --- | --- | --- | --- | --- |
| CC(C)=CCC/C(C)=C/Cc1cc(/C=C/C(=O)O[C@@H](Cc2c(OCC=C(C)C)ccc3ccc(=O)oc23)C(C)(C)O)c(O)cc1O |  |  |  |  |  |  |  |  |  |  |  |  |  |  |  |  |  |  |  | IC50 [1]: 14.9 µM; IC50 [2]: 18.4 µM; IC50 [3]: 22.5 µM |
| CC1=C[C@@H](c2cc3ccc(=O)oc3cc2O[C@@H]2O[C@H](CO)[C@@H](O)[C@H](O)[C@H]2O)[C@@](C)(/C=C/c2cc3ccc(=O)oc3cc2O[C@@H]2O[C@H](COC3OC[C@@H](O)[C@H](O)[C@H]3O)[C@@H](O)[C@H](O)[C@H]2O)CC1 (stereo partly drawn) | inactive | inactive | inactive | inactive | inactive | inactive | inactive | inactive | inactive | inactive | inactive | inactive | inactive | inactive | inactive | inactive | inactive | inactive | inactive |  |
| CC1=C[C@H](c2cc3ccc(=O)oc3cc2O[C@@H]2O[C@H](COC3OC[C@@H](O)[C@H](O)[C@H]3O)[C@@H](O)[C@H](O)[C@H]2O)[C@](C)(/C=C/c2cc3ccc(=O)oc3cc2O[C@@H]2O[C@H](CO)[C@@H](O)[C@H](O)[C@H]2O)CC1 (stereo partly drawn) | inactive | inactive | inactive | inactive | inactive | inactive | inactive | inactive | inactive | inactive | inactive | inactive | inactive | inactive | inactive | inactive | inactive | inactive | inactive |  |
| CC1=C[C@H](c2cc3ccc(=O)oc3cc2O[C@@H]2O[C@H](CO)[C@@H](O)[C@H](O)[C@H]2O)[C@](C)(/C=C/c2cc3ccc(=O)oc3cc2O[C@@H]2O[C@H](CO[C@@H]3OC[C@](O)(CO)[C@H]3O)[C@@H](O)[C@H](O)[C@H]2O)CC1 | inactive | inactive | inactive | inactive | inactive | inactive | inactive | inactive | inactive | inactive | inactive | inactive | inactive | inactive | inactive | inactive | inactive | inactive | inactive |  |
| CC1=C[C@@H](c2cc3ccc(=O)oc3cc2O[C@@H]2O[C@H](CO[C@@H]3OC[C@](O)(CO)[C@H]3O)[C@@H](O)[C@H](O)[C@H]2O)[C@@](C)(/C=C/c2cc3ccc(=O)oc3cc2O[C@@H]2O[C@H](CO)[C@@H](O)[C@H](O)[C@H]2O)CC1 | inactive | inactive | inactive | inactive | inactive | inactive | inactive | inactive | inactive | inactive | inactive | inactive | inactive | inactive | inactive | inactive | inactive | inactive | inactive |  |
| CC1=C[C@@H](c2cc3ccc(=O)oc3cc2O[C@@H]2O[C@H](COC3OC[C@@H](O)[C@H](O)[C@H]3O)[C@@H](O)[C@H](O)[C@H]2O)[C@@](C)(/C=C/c2cc3ccc(=O)oc3cc2O[C@@H]2O[C@H](COC3OC[C@@H](O)[C@H](O)[C@H]3O)[C@@H](O)[C@H](O)[C@H]2O)CC1 (stereo partly drawn) | inactive | inactive | inactive | inactive | inactive | inactive | inactive | inactive | inactive | inactive | inactive | inactive | inactive | inactive | inactive | inactive | inactive | inactive | inactive |  |
